# Laboratory results published in patent US10329294B2, “Pyrazolopyrimidine inhibitors of IRAK4 activity” (MERCK SHARP & DOHME CORP., priority 2015, dated 2019).
# Structures can show the parent of a compound that is named as a salt.
# Target: IRAK4 (Homo sapiens (Human), UniProt Q9NWZ3)
# Assay: IRAK4 Kinase Assay
# Format: biochemical
# Conditions: IMAP fluorescence polarization, 0.5 nM GST tagged IRAK4, 100 μM ATP, 30 minutes at 25° C.; read-out: IRAK4 IC50
# Chain of IRAK4 (Q9NWZ3 whole entry): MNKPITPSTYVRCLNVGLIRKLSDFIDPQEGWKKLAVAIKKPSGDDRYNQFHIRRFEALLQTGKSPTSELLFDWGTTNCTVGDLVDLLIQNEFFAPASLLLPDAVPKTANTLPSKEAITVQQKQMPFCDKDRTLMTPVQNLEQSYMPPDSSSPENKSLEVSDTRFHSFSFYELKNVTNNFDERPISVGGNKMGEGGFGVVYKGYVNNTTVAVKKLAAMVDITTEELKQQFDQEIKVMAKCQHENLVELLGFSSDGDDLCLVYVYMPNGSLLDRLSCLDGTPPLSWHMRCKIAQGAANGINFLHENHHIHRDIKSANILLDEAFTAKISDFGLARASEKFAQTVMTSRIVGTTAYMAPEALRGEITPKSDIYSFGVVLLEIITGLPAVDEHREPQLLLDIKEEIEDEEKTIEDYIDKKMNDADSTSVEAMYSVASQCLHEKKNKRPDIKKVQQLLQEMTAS
row,SMILES,IC50
1,"Cn1cc(NC(=O)c2cnn3ccc(N[C@H]4CCCCC[C@H]4N)nc23)c(C(F)(F)F)n1 (relative stereo) [Example 33, 5-{[cis-2-aminocycloheptyl]amino}-N-[1-methyl-3-(trifluoromethyl)-1H-pyrazol-4-yl]pyrazolo[1,5-a]pyrimidine-3-carboxamide]",2 nM
2,"C[C@@H]1CN(c2ccn3ncc(C(=O)Nc4cn(C)nc4C(F)(F)F)c3n2)[C@H](C)CN1 (relative stereo) [Example 75, 5-[cis-2,5-dimethylpiperazin-1-yl]-N-[1-methyl-3-(trifluoromethyl)-1H-pyrazol-4-yl]pyrazolo[1,5-a]pyrimidine-3-carboxamide trifluoroacetate]",55 nM
3,"C[C@@H]1CN[C@@H](C)CN1c1ccn2ncc(C(=O)Nc3cn(C)nc3C(F)(F)F)c2n1 (relative stereo) [Example 93, 5-[trans-2,5-dimethylpiperazin-1-yl]-N-[1-methyl-3-(trifluoromethyl)-1H-pyrazol-4-yl]pyrazolo[1,5-a]pyrimidine-3-carboxamide trifluoroacetate]",30 nM
4,"Cn1cc(NC(=O)c2cnn3ccc(N[C@@H]4CCCCC[C@@H]4N)nc23)c(C(F)(F)F)n1 (single isomer, unassigned) [Example 54, 5-{[(1R,2S)- or (1S,2R)-2-aminocycloheptyl]amino}-N-[1-methyl-3-(trifluoromethyl)-1H-pyrazol-4-yl]pyrazolo[1,5-a]pyrimidine-3-carboxamide]",63 nM
5,"Cn1cc(NC(=O)c2cnn3ccc(N[C@H]4CCCCC[C@H]4N)nc23)c(C(F)(F)F)n1 (single isomer, unassigned) [Example 55, 5-{[(1R,2S)- or (1S,2R)-2-aminocycloheptyl]amino}-N-[1-methyl-3-(trifluoromethyl)-1H-pyrazol-4-yl]pyrazolo[1,5-a]pyrimidine-3-carboxamide]",8 nM
6,"Cn1cc(NC(=O)c2cnn3ccc(N4C[C@H]5CC[C@@H]4CN5)nc23)c(C(F)(F)F)n1 (single isomer, unassigned) [Example 77, 5-[1S,4S)- or (1R,4R)-2,5-diazabicyclo[2.2.2]oct-2-yl]-N-[1-methyl-3-(trifluoromethyl)-1H-pyrazol-4-yl]pyrazolo[1,5-a]pyrimidine-3-carboxamide trifluoroacetate]",19 nM
7,"Cn1cc(NC(=O)c2cnn3ccc(N4C[C@@H]5CC[C@H]4CN5)nc23)c(C(F)(F)F)n1 (single isomer, unassigned) [Example 78, 5-[(1S,4S)- or (1R,4R)-2,5-diazabicyclo[2.2.2]oct-2-yl]-N-[1-methyl-3-(trifluoromethyl)-1H-pyrazol-4-yl]pyrazolo[1,5-a]pyrimidine-3-carboxamide trifluoroacetate]",44 nM
8,"Cn1cc(NC(=O)c2cnn3ccc(N4C[C@@H]5CNC[C@H]4C5)nc23)c(C(F)(F)F)n1 (single isomer, unassigned) [Example 83, 5-[(1S,5R)- or (1R,5S)-3,6-diazabicyclo[3.2.1]oct-6-yl]-N-[1-methyl-3-(trifluoromethyl)-1H-pyrazol-4-yl]pyrazolo[1,5-a]pyrimidine-3-carboxamide]",33 nM
9,"Cn1cc(NC(=O)c2cnn3ccc(N4C[C@H]5CNC[C@@H]4C5)nc23)c(C(F)(F)F)n1 (single isomer, unassigned) [Example 84, 5-[(1S,5R)- or (1R,5S)-3,6-diazabicyclo[3.2.1]oct-6-yl]-N-[1-methyl-3-(trifluoromethyl)-1H-pyrazol-4-yl]pyrazolo[1,5-a]pyrimidine-3-carboxamide]",158 nM
10,"Cn1cc(NC(=O)c2cnn3ccc(N4CC[C@H]5CC[C@@H](C4)N5)nc23)c(C(F)(F)F)n1 (single isomer, unassigned) [Example 89, 5-[(1R,6S)- or (1S,6R)-3,9-diazabicyclo[4.2.1]non-3-yl]-N-[1-methyl-3-(trifluoromethyl)-1H-pyrazol-4-yl]pyrazolo[1,5-a]pyrimidine-3-carboxamide trifluoroacetate]",270 nM
11,"Cn1cc(NC(=O)c2cnn3ccc(N4CC[C@@H]5CC[C@H](C4)N5)nc23)c(C(F)(F)F)n1 (single isomer, unassigned) [Example 94, 5-[(1R,6S)- or (1S,6R)-3,9-diazabicyclo[4.2.1]non-3-yl]-N-[1-methyl-3-(trifluoromethyl)-1H-pyrazol-4-yl]pyrazolo[1,5-a]pyrimidine-3-carboxamide trifluoroacetate]",70 nM
12,"Cn1cc(NC(=O)c2cnn3ccc(N4C[C@@H]5CC[C@H]4CN5)nc23)c(Cl)n1 (single isomer, unassigned) [Example 151, N-(3-chloro-1-methyl-1H-pyrazol-4-yl)-5-[(1S,4S)- or (1R,4R)-(2,5-diazabicyclo[2.2.2]oct-2-yl]pyrazolo[1,5-a]pyrimidine-3-carboxamide trifluoroacetate]",128 nM
13,"Cn1cc(NC(=O)c2cnn3ccc(N4C[C@H]5CC[C@@H]4CN5)nc23)c(Cl)n1 (single isomer, unassigned) [Example 152, N-(3-chloro-1-methyl-1H-pyrazol-4-yl)-5-[(1S,4S)- or (1R,4R)-(2,5-diazabicyclo[2.2.2]oct-2-yl]pyrazolo[1,5-a]pyrimidine-3-carboxamide trifluoroacetate]",28 nM
14,"O=C(Nc1cscc1C(F)F)c1cnn2ccc(N3C[C@@H]4CC[C@H]3CN4)nc12 (single isomer, unassigned) [Example 154, 5-[(1S,4S)- or (1R,4R)-2,5-diazabicyclo[2.2.2]oct-2-yl]-N-[4-(difluoromethyl)thiophen-3-yl]pyrazolo[1,5-a]pyrimidine-3-carboxamide trifluoroacetate]",86 nM
15,"O=C(Nc1cscc1C(F)F)c1cnn2ccc(N3C[C@H]4CC[C@@H]3CN4)nc12 (single isomer, unassigned) [Example 155, 5-[(1S,4S)- or (1R,4R)-2,5-diazabicyclo[2.2.2]oct-2-yl]-N-[4-(difluoromethyl)thiophen-3-yl]pyrazolo[1,5-a]pyrimidine-3-carboxamide trifluoroacetate]",32 nM
16,"Cn1cc(NC(=O)c2cnn3ccc(N4C[C@@H]5CC[C@H]4CN5)nc23)c(C#N)n1 (single isomer, unassigned) [Example 156, N-(3-cyano-1-methyl-1H-pyrazol-4-yl)-5-[(1S,4S)- or (1R,4R)-2,5-diazabicyclo[2.2.2]oct-2-yl]pyrazolo[1,5-a]pyrimidine-3-carboxamide trifluoroacetate]",41 nM
17,"Cn1cc(NC(=O)c2cnn3ccc(N4C[C@H]5CC[C@@H]4CN5)nc23)c(C#N)n1 (single isomer, unassigned) [Example 157, N-(3-cyano-1-methyl-1H-pyrazol-4-yl)-5-[(1S,4S)- or (1R,4R)-2,5-diazabicyclo[2.2.2]oct-2-yl]pyrazolo[1,5-a]pyrimidine-3-carboxamide trifluoroacetate]",60 nM
18,"Cn1cc(NC(=O)c2cnn3ccc(N4C[C@@H]5CC[C@H]4CN5)nc23)c(C(F)F)n1 (single isomer, unassigned) [Example 158, 5-[(1S,4S)- or (1R,4R)-2,5-diazabicyclo[2.2.2]oct-2-yl]-N-[3-(difluoromethyl)-1-methyl-1H-pyrazol-4-yl]pyrazolo[1,5-a]pyrimidine-3-carboxamide trifluoroacetate]",3 nM
19,"Cn1cc(NC(=O)c2cnn3ccc(N[C@H]4CCCCNC4)nc23)c(C(F)(F)F)n1 (single isomer, unassigned) [Example 159, 5-[(3S)- or (3R)-azepan-3-ylamino]-N-[1-methyl-3-(trifluoromethyl)-1H-pyrazol-4-yl]pyrazolo[1,5-a]pyrimidine-3-carboxamide trifluoroacetate]",18 nM
20,"Cn1cc(NC(=O)c2cnn3ccc(N[C@@H]4CCCCNC4)nc23)c(C(F)(F)F)n1 (single isomer, unassigned) [Example 160, 5-[(3S)- or (3R)-azepan-3-ylamino]-N-[1-methyl-3-(trifluoromethyl)-1H-pyrazol-4-yl]pyrazolo[1,5-a]pyrimidine-3-carboxamide trifluoroacetate]",0.5 nM
21,"Cn1cc(NC(=O)c2cnn3ccc(N4C[C@H]5CC[C@@H]4CN5)nc23)c(C(F)F)n1 (single isomer, unassigned) [Example 161, 5-[(1S,4S)- or (1R,4R)-2,5-diazabicyclo[2.2.2]oct-2-yl]-N-[3-(difluoromethyl)-1-methyl-1H-pyrazol-4-yl]pyrazolo[1,5-a]pyrimidine-3-carboxamide trifluoroacetate]",2 nM
22,"Cn1cc(NC(=O)c2cnn3ccc(N[C@@H]4CCCCNC4)nc23)c(C(F)F)n1 (single isomer, unassigned) [Example 162, 5-[(3S)- or (3R)-azepan-3-ylamino]-N-[3-(difluoromethyl)-1-methyl-1H-pyrazol-4-yl]pyrazolo[1,5-a]pyrimidine-3-carboxamide trifluoroacetate]",0.2 nM
23,"Cn1cc(NC(=O)c2cnn3ccc(N[C@H]4CCCCNC4)nc23)c(C(F)F)n1 (single isomer, unassigned) [Example 163, 5-[(3S)- or (3R)-azepan-3-ylamino]-N-[3-(difluoromethyl)-1-methyl-1H-pyrazol-4-yl]pyrazolo[1,5-a]pyrimidine-3-carboxamide trifluoroacetate]",7 nM
24,"Cn1cc(NC(=O)c2cnn3ccc(N4C[C@@H]5CC[C@H]4CN5)nc23)c(Br)n1 (single isomer, unassigned) [Example 164, N-(3-bromo-1-methyl-1H-pyrazol-4-yl)-5-[(1S,4S)- or (1R,4R)-2,5-diazabicyclo[2.2.2]oct-2-yl]pyrazolo[1,5-a]pyrimidine-3-carboxamide trifluoroacetate]",50 nM
25,"Cn1cc(NC(=O)c2cnn3ccc(N4C[C@H]5CC[C@@H]4CN5)nc23)c(Br)n1 (single isomer, unassigned) [Example 165, N-(3-bromo-1-methyl-1H-pyrazol-4-yl)-5-[(1S,4S)- or (1R,4R)-2,5-diazabicyclo[2.2.2]oct-2-yl]pyrazolo[1,5-a]pyrimidine-3-carboxamide trifluoroacetate]",19 nM
